Results from patent US20220257774A1, “AROMATIC AMINE AR AHD BET TARGETING PROTEIN DEGRADATION CHIMERA COMPOUND AND USE” (HINOVA PHARMACEUTICALS INC., priority 2019, published 2022).
Read-outs that look alike come from different tables or passages of the source.

System: LNCaP/AR cells
Test: Inhibition of the proliferation of LNCap/AR cells (CCK-8)
Assay type: cell-based
Conditions: read-out: LNCap/AR IC50
Excerpt: 1. Biological Assay of the Inhibition on the Proliferation of LNCap/AR Cells
(1) Experimental materials and instruments: LNCaP/AR cell line and 22RV1 cell line (provided by Sichuan Kangcheng Biotechnology Co., Ltd.) Fetal bovine serum FBS (Gibco, Cat. No. 10099-141) 0.01M PBS (Biosharp, Cat. No. 162262) RIPM1640 medium (Hyclone, Cat. No. 308090.01) Penicillin-Streptomycin (Hyclone, Cat. No. SV30010) Cell counting kit-8 (Signalway Antibody, Cat. No. CP002) DMSO (Sigma, Cat. No. D5879) Centrifuge Tube, 15 ml (Excell Bio, Cat. No. CS015-0001) Cell Culture Dish, (Excell Bio, Cat. No. CS016-0128) 96-well cell culture plate (Corning, Cat. No. 3599) Microplate reader (Thermo Multiskan MK3 type)
(2) Experimental Methods:
a. Preparation of Buffer Cell culture medium: RIPM1640 medium, 10% FBS, 1% Pen Strep: PBS buffer: PBS powder was dissolved in 2 L of ultrapure water and sterilized. b. Experimental Procedures 1) LNCaP/AR cells were subcultured in cell culture media, and then the cells in good growth condition were seeded in a 96-well plate at 80 μL/well (1000 cells/well), and cultured overnight in a 37° C., 5% CO2 cell incubator. 2) The drug was prepared into a 10 mM stock solution with dimethyl sulfoxide (DMSO). Prior to use, the stock solution was diluted in a ratio of […] with DMSO, and then diluted at a 3-fold gradient to obtain 9 serial concentrations. Then, each concentration of compound was further diluted in a ratio of 1:200 with the culture medium (to ensure that the DMSO concentration in the culture system was 0.1%), and two wells were set for each concentration. 20 μL of the diluted compound solution was added to the well of the cell culture (with a final concentration of 10 μM, 3.3 μM, 1.1 μM . . . ), and then the plate was gently tapped to thoroughly mix. In addition, the experiment included 3 negative control wells only containing cells and 3 blank control wells only containing culture medium (6 wells were each added with DMSO diluted in a ratio of 1:200 with 20 μL of culture medium). c. Result Detection: 1) After culturing for 6 days, 10 μL of CCK-8 was added to each well, and the plate was further incubated for 1 h in a 37° C., 5% CO2 cell incubator. 2) The absorbance (OD value) was measured at 450 nm with a multifunctional microplate reader. 3) The data was analyzed by the Dose-response-inhibition equation in the software GraphPad Prism5, and the IC50 value was obtained. 2. Biological assay of the inhibition on the proliferation of other drug-resistant prostate cancer cells

[1] = 144 h, LNCaP/AR cells, 6 days culture, CCK-8
[2] = LNCaP/AR cells, 6 days culture, CCK-8

Row | SMILES | IC50 [1] | other results
1 | CC(=O)O[C@@H]1C[C@@H](C(=O)N[C@@H](C)c2ccc(-c3scnc3C)cc2)N(C(=O)[C@@H](NC(=O)COCCCCCN(c2ccc(-n3cnc(C)c3)cc2)c2cc(-c3c(C)noc3C)ccc2C)C(C)(C)C)C1 [Compound 96, (3R,5S)-1-((S)-2-(2-((5-((5-(3,5-dimethylisoxazol-4-yl)-2-methylphenyl)(4-(4-methyl-1H-imidazol-1-yl)phenyl)amino)pentyl)oxy)acetylamino)-3,3-dimethylbutyryl)-5-(((S)-1-(4-(4-methylthiazol-5-yl)phenyl)ethyl)aminoformyl)pyrrolidinyl-3-yl acetate] |  | IC50 [2]: < 100 nM
2 | CC(=O)O[C@@H]1C[C@@H](C(=O)N[C@@H](C)c2ccc(-c3scnc3C)cc2)N(C(=O)[C@@H](NC(=O)COCCCCCN(c2ccc(-n3ccnc3)c(F)c2)c2cc(-c3c(C)noc3C)ccc2C)C(C)(C)C)C1 [Compound 13, (3R,5S)-1-((S)-2-(2-((5-((3-fluoro-4-(1H-imidazol-1-yl)phenyl)(5-(3,5-dimethylisoxazol-4-yl)-2-methylphenyl)amino)n-pentyl)oxy)acetylamino)-3,3-dimethylbutyryl)-5-(((S)-1-(4-(4-methylthiazol-5-yl)phenyl)ethyl)formylamino)pyrrolidinyl-3-acetate] |  | IC50 (LNCaP/AR, 144 h): > 2000 nM
3 | CCCCCCCCC(CCCCCCCOCC(=O)N[C@H](C(=O)N1C[C@H](OC(C)=O)C[C@H]1C(=O)N[C@@H](C)c1ccc(-c2scnc2C)cc1)C(C)(C)C)N(c1ccc(-n2ccnc2)cc1)c1cc(-c2c(C)noc2C)ccc1C (stereo partly drawn) [Compound 88, (3R,5S)-1-((S)-2-(2-((8-((4-(1H-imidazol-1-yl)phenyl)(5-(3,5-dimethylisoxazol-4-yl)-2-methylphenyl)amino)cetyl)oxy)acetylamino)-3,3-dimethylbutyryl)-5-(((S)-1-(4-(4-methylthiazol-5-yl)phenyl)ethyl)carbamoyl)pyrrolidine-3-yl acetate] | 501 to 2000 nM | 
4 | Cc1cn(-c2ccc(N(CCCCCOCC(=O)N[C@H](C(=O)N3C[C@H](O)C[C@H]3C(=O)N[C@@H](C)c3ccc(-c4scnc4C)cc3)C(C)(C)C)c3cc(-c4c(C)noc4C)ccc3C)cc2Br)cn1 [Compound 53] | < 100 nM | 
5 | CC(=O)O[C@@H]1C[C@@H](C(=O)N[C@@H](C)c2ccc(-c3scnc3C)cc2)N(C(=O)[C@@H](NC(=O)CN2CCC(CCN(c3ccc(-n4ccnc4)c(Br)c3)c3cc(-c4c(C)noc4C)ccc3C)CC2)C(C)(C)C)C1 [Compound 23, (3R,5S)-1-((S)-2-(2-(4-(2-((3-Bromo-4-(1H-imidazol-1-yl)phenyl)(5-(3,5-dimethylisoxazol-4-yl)-2-methylphenyl)amino)ethyl)piperidin-1-yl)acetamido)-3,3-dimethylbutanol)-5-((S)-1-(4-methylthiazol-5-yl)phenyl)ethyl)carbamoyl)pyrrolidine-3-yl acetate] |  | IC50 [2]: > 2000 nM
6 | Cc1ccc(-c2c(C)noc2C)cc1N(CCCCCOCC(=O)N[C@H](C(=O)N1C[C@H](O)C[C@H]1C(=O)N[C@@H](C)c1ccc(-c2scnc2C)cc1)C(C)(C)C)c1ccc(C#N)c(Cl)c1 [Compound 58] |  | IC50 (LNCaP/AR, 144 h): 101 to 500 nM
7 | Cc1ccc(-c2c(C)noc2C)cc1N(CCCC1CCN(c2ccc3c(c2)C(=O)N(C2CCC(=O)NC2=O)C3=O)CC1)c1ccc(C2(C#N)CC2)cc1 (stereo not shown) [Compound 30, 1-(4-((5-(3,5-Dimethylisoxazol-4-yl)-2-methylphenyl)(3-(1-(2-(2,6-dioxopiperidin-3-yl)-1,3-dioxoisoindolin-5-yl)piperidin-4-yl)propyl)amino)phenyl)cyclopropane-1-nitrile] | 101 to 500 nM | 
8 | Cc1ccc(-c2c(C)noc2C)cc1N(CCCCCOCC(=O)Nc1cccc2c1CN(C1CCC(=O)NC1=O)C2=O)c1ccc(Br)cc1 (stereo not shown) [Compound 27, 2-((5-((4-Bromophenyl)(5-(3,5-Dimethylisoxazol-4-yl)-2-methylphenyl)amino)pentyl)oxy)-N-(2-(2,6-dioxopiperidin-3-yl)-1-oxoisoindolin-4-yl)acetamide] | 501 to 2000 nM | 
9 | CC(=O)O[C@@H]1C[C@@H](C(=O)N[C@@H](C)c2ccc(-c3scnc3C)cc2)N(C(=O)[C@@H](NC(=O)COCCN2CC(CN(c3ccc(-n4ccnc4)c(Br)c3)c3cc(-c4c(C)noc4C)ccc3C)C2)C(C)(C)C)C1 [Compound 51, (3R,5S)-1-((S)-2-(2-(3-((3-bromo-4-(1H-imidazol-1-yl)phenyl) (5-(3,5-dimethylisoxazol-4-yl)-2-methylphenyl)amino)methyl)azetidine-1-yl)ethoxy)acetamido)-3,3-dimethylbutanol)-5-((S)-(4-methylthiazol-5-yl)phenyl)ethyl)carbamoyl)pyrrolidine-3-yl acetate] | > 2000 nM | 

Second part, led by results:

Row | IC50 [1] | SMILES | other results
10 | 101 to 500 nM | Cc1ccc(-c2c(C)noc2C)cc1N(CCCCCOCC(=O)N[C@H](C(=O)N1C[C@H](O)C[C@H]1C(=O)N[C@@H](C)c1ccc(-c2scnc2C)cc1)C(C)(C)C)c1ccc(Br)cc1 [Compound 26, (2S,4R)-1-((S)-2-(2-((5-((4-Bromophenyl)(5-(3,5-Dimethylisoxazol-4-yl)-2-methylphenyl)amino)pentyl)oxy)acetamido)-3,3-dimethylbutyryl)-4-hydroxy-N—((S)-1-(4-(4-methylthiazol-5-yl)phenyl)ethyl)pyrrolidine-2-formamide] | 
11 | > 2000 nM | CC(=O)O[C@@H]1C[C@@H](C(=O)N[C@@H](C)c2ccc(-c3scnc3C)cc2)N(C(=O)[C@@H](NC(=O)COCCOCCN(c2ccc(-n3ccnc3)c(Br)c2)c2cc(-c3c(C)noc3C)ccc2C)C(C)(C)C)C1 [Compound 54] | 
12 | 501 to 2000 nM | CC(=O)O[C@@H]1C[C@@H](C(=O)N[C@@H](C)c2ccc(-c3scnc3C)cc2)N(C(=O)[C@@H](NC(=O)COCCCCCN(c2ccc(-n3ccnc3)c(Br)c2)c2cc(-c3c(C)noc3C)cnc2C)C(C)(C)C)C1 [Compound 48, (3R,5S)-1-((S)-2-(2-((5-((3-bromo-4-(1H-imidazol-1-yl)phenyl)(5-(3,5-dimethylisoxazol-4-yl)-2-methylpyridin-3-yl)amino)pentyl)oxy)acetamido)-3,3-dimethylbutanol)-5-((S)-1-(4-methylthiazol-5-yl)phenyl)ethyl)carbamoyl)pyrrolidine-3-yl acetate] | 
13 | 501 to 2000 nM | Cc1ccc(-c2c(C)noc2C)cc1N(CCCCCCCCOCC(=O)N[C@H](C(=O)N1C[C@H](O)C[C@H]1C(=O)N[C@@H](C)c1ccc(-c2scnc2C)cc1)C(C)(C)C)c1ccc(-n2ccnc2)cc1 [Compound 87, (2S,4R)-1-((S)-2-(2-((8-((4-(1H-imidazol-1-yl)phenyl)(5-(3,5-methylisoxazol-4-yl)-2-methylphenyl)amino)cetyl)oxy)acetylamino)-3,3-dimethylbutyryl)-4-hydroxy-N—((S)-1-(4-(4-methylthiazol-5-yl)phenyl)ethyl)pyrrolidinyl-2-formamide] | 
14 | 501 to 2000 nM | CC(=O)O[C@@H]1C[C@@H](C(=O)N[C@@H](C)c2ccc(-c3scnc3C)cc2)N(C(=O)[C@@H](NC(=O)COCCN2CCC(CN(c3ccc(-n4ccnc4)c(Br)c3)c3cc(-c4c(C)noc4C)ccc3C)CC2)C(C)(C)C)C1 [Compound 50, (3R,5S)-1-((S)-2-(2-(4-((3-bromo-4-(1H-imidazol-1-yl)phenyl) (5-(3,5-dimethylisoxazol-4-yl)-2-methylphenyl)amino)methyl)piperidin-1-yl)ethoxy)acetamido)-3,3-dimethylbutyryl)-5-((S)-1-(4-methylthiazol-5-yl)phenyl)ethyl)carbamoyl)pyrrolidine-3-yl acetate] | 
15 | 101 to 500 nM | Cc1ccc(-c2c(C)noc2C)cc1N(CCC1CCN(c2ccc3c(c2)C(=O)N(C2CCC(=O)NC2=O)C3=O)CC1)c1ccc(C2(C#N)CC2)cc1 (stereo not shown) [Compound 28, 1-(4-((5-(3,5-Dimethylisoxazol-4-yl)-2-methylphenyl)(2-(1-(2-(2,6-dioxopiperidin-3-yl)-1,3-dioxoisoindolin-5-yl)piperidin-4-yl)ethyl)amino)phenyl)cyclopropane-1-carbonitrile] | 
16 | 101 to 500 nM | Cc1ccc(-c2c(C)noc2C)cc1N(CCCCCOCC(=O)N[C@H](C(=O)N1C[C@H](O)C[C@H]1C(=O)N[C@@H](C)c1ccc(-c2scnc2C)cc1)C(C)(C)C)c1ccc(-n2cnnc2)cc1 [Compound 93, (2S,4R)-1-((S)-2-(2-((5-((4-(1H-1,3,4-triazol-1-yl)phenyl)(5-(3,5-dimethylisoxazol-4-yl)-2-methylphenyl)amino)pentyl)oxy)acetylamino)-3,3-dimethylbutyryl)-4-hydroxy-N—((S)-1-(4-(4-methylthiazol-5-yl)phenyl)ethyl)-pyrrolidinyl-2-formamide] | 
